melting point [°C]	SMILES
92 to 94	CCCCCNC(=O)c1cnc(N2CCN(C(=O)c3ccccc3C(F)(F)F)CC2)s1 [Example 7, 2-[4-(2-TRIFLUOROMETHYLBENZOYL)PIPERAZIN-1-YL]-THIAZOLE-5-CARBOXYLIC ACID PENTYLAMIDE]
58 to 61	CCCCCNC(=O)c1cc(N2CCN(C(=O)c3ccccc3C(F)(F)F)CC2)nn1C(=O)OCc1ccccc1 [Example 6, 5-PENTYLCARBAMOYL-3-[4-(2-TRIFLUOROMETHYLBENZOYL)PIPERAZIN-1-YL]PYRAZOLE-1-CARBOXYLIC ACID BENZYL ESTER]

Source: patent US7919496B2, “Heterocyclic derivatives for the treatment of diseases mediated by stearoyl-CoA desaturase enzymes” (Xenon Pharmaceuticals Inc., priority 2004, dated 2011)
